Assay results reported in ChEMBL document CHEMBL6115002, “Discovery of novel sitolactone derivative leading to PANoptosis and differentiation of acute myeloid leukemia cells” (Eur J Med Chem, 2025).

Experiments:
Format in all cases: functional, cell-based
[1] = Antiproliferative activity against mouse WEHI-3 cells assessed as inhibition cell proliferation incubated for 72 hrs by MTT assay; settings: WEHI-3, 72 h
MV4-11 = assay: Antiproliferative activity against human MV4-11 cells assessed as inhibition cell proliferation incubated for 72 hrs by MTT assay; settings: MV4-11, 72 h
Kasumi 1 = assay: Antiproliferative activity against human Kasumi 1 cells assessed as inhibition cell proliferation incubated for 72 hrs by MTT assay; settings: Kasumi 1, 72 h

IC50 (MV4-11) | SMILES | IC50 [1] | IC50 (Kasumi 1)
> 20 µM | C=C1C[C@@H]2[C@@H](CC[C@]3(C)[C@@H](O[Si](OC)(OC)OC)CC[C@@H]23)OC1=O | > 20 µM | > 20 µM
> 20 µM | C=C1C[C@@H]2[C@@H](CC[C@]3(C)[C@@H](O[Si](C)(C)CCCCl)CC[C@@H]23)OC1=O | > 20 µM | > 20 µM
5.32 µM | C=C1C[C@@H]2[C@@H](CC[C@]3(C)[C@@H](O[Si](c4ccccc4)(c4ccccc4)c4ccccc4)CC[C@@H]23)OC1=O | 4.61 µM | 5.86 µM
> 20 µM | C=C1C[C@@H]2[C@@H](CC[C@]3(C)[C@@H](O)CC[C@@H]23)OC1=O | 12.6 µM | > 20 µM
> 20 µM | C=C1C[C@@H]2[C@@H](CC[C@]3(C)[C@@H](OS(=O)(=O)c4ccsc4C(=O)OC)CC[C@@H]23)OC1=O | 18 µM | > 20 µM
> 20 µM | C=C1C[C@@H]2[C@@H](CC[C@]3(C)[C@@H](O[Si](C)(C)C(C)C)CC[C@@H]23)OC1=O | > 20 µM | > 20 µM
> 20 µM | C=C1C[C@@H]2[C@@H](CC[C@]3(C)[C@@H](OS(=O)(=O)CCC)CC[C@@H]23)OC1=O | > 20 µM | > 20 µM
16.6 µM | C=C1C[C@@H]2[C@@H](CC[C@]3(C)[C@@H](OC(=O)c4ccc(C(F)(F)F)cc4)CC[C@@H]23)OC1=O | 10.2 µM | 9.97 µM
15.4 µM | C=C1C[C@@H]2[C@@H](CC[C@]3(C)[C@@H](OS(=O)(=O)CCN4C(=O)c5ccccc5C4=O)CC[C@@H]23)OC1=O | 9.17 µM | 7.82 µM
> 20 µM | C=C1C[C@@H]2[C@@H](CC[C@]3(C)[C@@H](O[Si](OCC)(OCC)OCC)CC[C@@H]23)OC1=O | > 20 µM | > 20 µM
3.89 µM | C=C1C[C@@H]2[C@@H](CC[C@]3(C)[C@@H](O[Si](c4ccccc4)(c4ccccc4)C(C)(C)C)CC[C@@H]23)OC1=O | 1.37 µM | 1.51 µM
> 20 µM | C#CCCCC(=O)O[C@H]1CC[C@H]2[C@@H]3CC(=C)C(=O)O[C@@H]3CC[C@]12C | > 20 µM | > 20 µM
11.7 µM | C=C1C[C@@H]2[C@@H](CC[C@]3(C)[C@@H](OC(C)(C)C)CC[C@@H]23)OC1=O | 7.17 µM | 8.98 µM
> 20 µM | C=C1C[C@@H]2[C@@H](CC[C@]3(C)[C@@H](OC(=O)c4ccc(OC)cc4)CC[C@@H]23)OC1=O | 9.43 µM | 15.4 µM
8.71 µM | C=C1C[C@@H]2[C@@H](CC[C@]3(C)[C@@H](OS(=O)(=O)c4cccs4)CC[C@@H]23)OC1=O | 8.25 µM | 9.32 µM
8.36 µM | C=C1C[C@@H]2[C@@H](CC[C@]3(C)[C@@H](O[Si](C)(C)C(C)(C)C)CC[C@@H]23)OC1=O | 2.36 µM | 3.72 µM
2.17 µM | C=C1C[C@@H]2[C@@H](CC[C@]3(C)[C@@H](O[Si](CCC)(CCC)CCC)CC[C@@H]23)OC1=O | 1.46 µM | 1.29 µM
16.6 µM | C=C1C[C@@H]2[C@@H](CC[C@]3(C)[C@@H](OC(=O)c4ccccn4)CC[C@@H]23)OC1=O | 8.85 µM | 13.7 µM
> 20 µM | C=C1C[C@@H]2[C@@H](CC[C@]3(C)[C@@H](OC=O)CC[C@@H]23)OC1=O | 13.7 µM | 16.4 µM
14.2 µM | C=C1C[C@@H]2[C@@H](CC[C@]3(C)[C@@H](OC(=O)c4ccc(C(F)(F)F)cn4)CC[C@@H]23)OC1=O | 8.21 µM | 15.3 µM
16.4 µM | C=C1C[C@@H]2[C@@H](CC[C@]3(C)[C@@H](OC(=O)c4ccc(CC)cc4)CC[C@@H]23)OC1=O | 6.73 µM | 10.3 µM
